From patent US11484539B2, “Compounds and their uses for alleviating menopause-associated symptoms” (Estetra SPRL, priority 2018, dated 2022)

System: post-menopausal women
Experiment: Weekly frequency of moderate to severe VMS, dose-finding study
Format: in vivo
Details: for Difference with placebo, LS adjusted mean, absolute change in weekly frequency of moderate to severe VMS / Difference with placebo, LS adjusted mean, relative change in weekly frequency of moderate to severe VMS: 2.5 mg E4 vs placebo
From the text: To determine the Minimum Effective Dose (MED), firstly the selection criteria required that patients presented at least 7 moderate to severe VMS/day or at least 50 moderate to severe VMS/week in the week preceding randomization. Secondly, a placebo group was included in a double-blind fashion. Thirdly, the total patient number was such that statistical significance could be obtained between separate arms of the study. Fourthly, the absolute change from baseline in weekly frequency of moderate to severe VMS was taken into account. An analysis of covariance (ANCOVA) was performed based on the untransformed change in weekly frequency of moderate to severe VMS from baseline. Finally, the change in severity from baseline was evaluated. For this, the Severity Scoring System of VMS was documented by the subjects as follows: • a score of Mild (1) for a sensation of heat without sweating; • a score of Moderate (2) for a sensation of heat with sweating/the subject is able to continue activity; and • a score of Severe (3) for a sensation of heat with sweating/which causes cessation of activity.
Enrolment was approximately 18 months. Individual subject participation was up to 27 weeks: up to 6 weeks pre-screening and washout, up to 4 weeks screening and run-in period, up to 91 days (13 weeks) of E4/placebo treatment followed by 2 weeks (14 days) of progestin therapy and a Follow up visit 1 week after completion of progestin therapy in non-hysterectomised subjects only.
To define the minimum effective dose (MED) of the oral dose of E4 by evaluating changes in frequency and in severity of moderate to severe vasomotor symptoms (VMS).
This was a prospective, multicentre, randomised, placebo-controlled, double-blinded, dose-finding study.
Eligible subjects were hysterectomised and non-hysterectomised post-menopausal women aged 40 to 65 years, inclusive, presenting at least 7 moderate to severe hot flushes/day or at least 50 moderate to severe hot flushes/week.
The subjects have met all of the following inclusion criteria at the randomization visit. These criteria were assessed during the screening period: • 1. Women aged 40 to 65 years, inclusive, presenting at least 7 moderate to severe hot flushes/day or at least 50 moderate to severe hot flushes/week in the week preceding randomization. • 2. Body Mass Index (BMI) between 18.0 and 35.0 kg/m^2, inclusive. • 3. Post-menopausal status defined as levels of follicle stimulating hormone (FSH) >40 IU/L and: • amenorrhoea for at least 12 consecutive months or, • amenorrhoea for at least 6 months with estradiol (E2)<20 pg/mL or, • at least 6 weeks post-surgical bilateral oophorectomy with or without hysterectomy with a copy of the pathology report or a statement on letterhead from the subject's physician documenting both ovaries were removed is required. • 4. For non-hysterectomised women: intact uterus with bi-layer endometrial thickness […] on TVUS. • 5. Negative pregnancy test. • 6. Good physical and mental health, in the judgement of the Principal Investigator (PI), on the basis of medical, surgical and gynaecological history, physical examination, gynaecological examination, clinical laboratory, and vital signs. • 7. Subject has provided signed and dated written informed consent before admission to the study. • 8. Subject is able to understand and comply with the protocol requirements, instructions, and protocol-stated restrictions. Exclusion Criteria:
All treatments (Estetrol, hereinafter, E4, [2.5 mg, 5 mg, 10 mg, 15 mg] capsule) were administered once daily (QD) per os for at least 12 consecutive weeks until the last biological assessments (Day 91 maximum) had been performed.
In order to analyse the data recorded in this study, treatment groups have been compared using an ANCOVA (analysis of covariance) with respect to the change in weekly frequency of moderate to severe VMS from baseline to weeks 4 and 12. […]

[1] = 2.5 mg E4, week 4, ANCOVA with study centre
[2] = 2.5 mg E4, week 4, without site effect
[3] = 2.5 mg E4, week 12, ANCOVA with study centre
[4] = 2.5 mg E4, week 12, without site effect
[5] = week 4, ANCOVA with study centre
[6] = week 12, ANCOVA with study centre
[7] = 5 mg E4, week 4, ANCOVA with study centre
[8] = 5 mg E4, week 4, without site effect
[9] = 5 mg E4, week 12, ANCOVA with study centre
[10] = 5 mg E4, week 12, without site effect

## C[C@]12CC[C@@H]3c4ccc(O)cc4CC[C@H]3[C@@H]1[C@@H](O)[C@@H](O)[C@@H]2O [E4, 1,3,5 (10)-estratrien-3,15alpha,16alpha,17beta-tetrol]
[1]
  LS adjusted mean change from baseline in weekly frequency of moderate to severe VMS: −32.26
  LS adjusted mean relative change (%) from baseline in weekly frequency of moderate to severe VMS: -48.5%
[2]
  LS adjusted mean change from baseline in weekly frequency of moderate to severe VMS: −32.68
  LS adjusted mean relative change (%) from baseline in weekly frequency of moderate to severe VMS: -49.5%
[3]
  LS adjusted mean change from baseline in weekly frequency of moderate to severe VMS: −40.13
  LS adjusted mean relative change (%) from baseline in weekly frequency of moderate to severe VMS: -60.6%
[4]
  LS adjusted mean change from baseline in weekly frequency of moderate to severe VMS: −40.68
  LS adjusted mean relative change (%) from baseline in weekly frequency of moderate to severe VMS: -62.2%
2.5 mg E4 QD per os, week 1
  Mean change from baseline in weekly frequency of moderate to severe VMS: −17.28
  Relative change (% from baseline) in weekly frequency of moderate to severe VMS, mean: −23%
2.5 mg E4 QD per os, week 2
  Mean change from baseline in weekly frequency of moderate to severe VMS: −25.10
  Relative change (% from baseline) in weekly frequency of moderate to severe VMS, mean: −34%
2.5 mg E4 QD per os, week 3
  Mean change from baseline in weekly frequency of moderate to severe VMS: −32.46
  Relative change (% from baseline) in weekly frequency of moderate to severe VMS, mean: −44%
2.5 mg E4 QD per os, week 4
  Mean change from baseline in weekly frequency of moderate to severe VMS: −35.89
  Relative change (% from baseline) in weekly frequency of moderate to severe VMS, mean: −49%
2.5 mg E4 QD per os, week 5
  Mean change from baseline in weekly frequency of moderate to severe VMS: −37.16
  Relative change (% from baseline) in weekly frequency of moderate to severe VMS, mean: −50%
2.5 mg E4 QD per os, week 6
  Mean change from baseline in weekly frequency of moderate to severe VMS: −39.98
  Relative change (% from baseline) in weekly frequency of moderate to severe VMS, mean: −54%
2.5 mg E4 QD per os, week 7
  Mean change from baseline in weekly frequency of moderate to severe VMS: −42.44
  Relative change (% from baseline) in weekly frequency of moderate to severe VMS, mean: −57%
2.5 mg E4 QD per os, week 8
  Mean change from baseline in weekly frequency of moderate to severe VMS: −43.62
  Relative change (% from baseline) in weekly frequency of moderate to severe VMS, mean: −58%
2.5 mg E4 QD per os, week 9
  Mean change from baseline in weekly frequency of moderate to severe VMS: −45.19
  Relative change (% from baseline) in weekly frequency of moderate to severe VMS, mean: −61%
2.5 mg E4 QD per os, week 10
  Mean change from baseline in weekly frequency of moderate to severe VMS: −45.54
  Relative change (% from baseline) in weekly frequency of moderate to severe VMS, mean: −61%
2.5 mg E4 QD per os, week 11
  Mean change from baseline in weekly frequency of moderate to severe VMS: −44.74
  Relative change (% from baseline) in weekly frequency of moderate to severe VMS, mean: −60%
2.5 mg E4 QD per os, week 12
  Mean change from baseline in weekly frequency of moderate to severe VMS: −45.04
  Relative change (% from baseline) in weekly frequency of moderate to severe VMS, mean: −61%
[5]
  Difference with placebo, LS adjusted mean, absolute change in weekly frequency of moderate to severe VMS: 1.536
  Difference with placebo, LS adjusted mean, relative change in weekly frequency of moderate to severe VMS: 0.005984
Week 4, without site effect
  Difference with placebo, LS adjusted mean, absolute change in weekly frequency of moderate to severe VMS: 0.9721
  Difference with placebo, LS adjusted mean, relative change in weekly frequency of moderate to severe VMS: −0.005455
[6]
  Difference with placebo, LS adjusted mean, absolute change in weekly frequency of moderate to severe VMS: 3.603
  Difference with placebo, LS adjusted mean, relative change in weekly frequency of moderate to severe VMS: 0.03673
Week 12, without site effect
  Difference with placebo, LS adjusted mean, absolute change in weekly frequency of moderate to severe VMS: 3.246
  Difference with placebo, LS adjusted mean, relative change in weekly frequency of moderate to severe VMS: 0.02897
[7]
  LS adjusted mean change from baseline in weekly frequency of moderate to severe VMS: −27.44
  LS adjusted mean relative change (%) from baseline in weekly frequency of moderate to severe VMS: -42.2%
[8]
  LS adjusted mean change from baseline in weekly frequency of moderate to severe VMS: −27.87
  LS adjusted mean relative change (%) from baseline in weekly frequency of moderate to severe VMS: -43.1%
[9]
  LS adjusted mean change from baseline in weekly frequency of moderate to severe VMS: −40.68
  LS adjusted mean relative change (%) from baseline in weekly frequency of moderate to severe VMS: -60.3%
[10]
  LS adjusted mean change from baseline in weekly frequency of moderate to severe VMS: −41.01
  LS adjusted mean relative change (%) from baseline in weekly frequency of moderate to severe VMS: -61.4%
5 mg E4 QD per os, week 1
  Mean change from baseline in weekly frequency of moderate to severe VMS: −15.04
  Relative change (% from baseline) in weekly frequency of moderate to severe VMS, mean: −23%
5 mg E4 QD per os, week 2
  Mean change from baseline in weekly frequency of moderate to severe VMS: −21.68
